The results in this text go back to patent publication US9695149B2, “1,2,6-substituted benzimidazoles as flap modulators” (JANSSEN PHARMACEUTICA NV, priority 2013, dated 2017).

One assay addresses human FLAP (Homo sapiens (Human), UniProt P20292). Description: FLAP binding assay (HTRF format). The note with it: human FLAP-containing Sf-9 membranes, wild type; average of runs. On the procedure:
(§1) The ability of the compounds of the present invention to treat a FLAP-mediated disease and/or disorder, or associated symptoms or complications thereof, was determined using the following procedures. Binding assay data represent the average value obtained from two different assay plates, with samples run in duplicate on each plate. Human whole blood assay data represent a single replicate on an assay plate using whole blood from at least one healthy donor.
The assay below is used to test the modulatory activity of compounds against FLAP. Human and mouse FLAP-encoding DNA was amplified by polymerase chain reaction and cloned into pFastBac1 (Invitrogen) with a NH2-terminal 6-His tag for expression in Spodoptera frugiperda (Sf-9) cells. FLAP-containing membranes were prepared as was a FITC-labeled FLAP modulator (3-(3-(tert-butylthio)-1-(4-chlorobenzyl)-5-(quinolin-2-ylmethoxy)-1H-indol-2-yl)-2,2-dimethylpropanoic acid). The FLAP binding assay is performed in HTRF format (homogeneous time resolved fluorescence). […] The reaction is allowed to proceed for two hours after which the plate is read on an Envision plate reader in HTRF mode. Data are expressed as a HTRF ratio.
For human FLAP binding assays, data are analyzed with 3DX Explorer software. […] For analysis, data from multiple runs are averaged and each compound may be tested in 2 to 20 runs. Each run comprises two plates and each plate includes duplicates. Data from each plate is averaged and data are imported into 3DX. The data from multiple runs are aggregated as the average of duplicates of the calculated ratios in order to calculate Ki and IC50 values. Numbers in parentheses are the number of runs for the assay.

In assay [1] the test system is leukotriene pathway in human whole blood. Nature of the assay: Human whole blood assay (LTB4, A23187-stimulated). Format: cell-based. The note with it: human whole blood diluted 1:1 in RPMI, calcium ionophore A23187 7 μg/mL, 30 min. As for the experimental part: as §1
An in vitro cellular assay was performed using human whole blood collected in heparin-containing tubes, which was used to test the ability of compounds to modulate the leukotriene pathway in human whole blood. The blood was diluted 1:1 in RPMI medium, pre-incubated for 15 min at 37° Celsius with test compounds at various concentrations, and then stimulated with calcium ionophore, A23187 (7 μg/mL), for 30 min at 37° Celsius. The samples were then centrifuged and plasma was removed. The plasma was diluted in assay buffer and LTB4 levels were measured using a commercial kit (Enzo Life Sciences). The concentration of each compound that was required for half-maximal inhibition (modulation) of […] (IC50) was calculated by a 4-parameter equation using the program GraphPad Prism (GraphPad software). For analysis, data are imported into 3DX and aggregated as the average of duplicates of the calculated ratios in order to calculate Ki and IC50 values. Numbers in parentheses are the number of runs for the assay.

pIC50, pKi: −log10 of the molar value. Structures can show the parent of a compound that is named as a salt.

Sequence of human FLAP (P20292 whole entry): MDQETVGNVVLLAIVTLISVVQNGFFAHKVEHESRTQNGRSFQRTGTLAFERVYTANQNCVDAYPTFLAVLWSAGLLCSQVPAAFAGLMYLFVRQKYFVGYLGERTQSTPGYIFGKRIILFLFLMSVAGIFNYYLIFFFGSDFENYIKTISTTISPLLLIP

The compound `CCC(CC)(Cc1nc2ccc(OCc3ccn(C)n3)cc2n1Cc1cccc(N2CCCCC2)c1)C(=O)O` [Example 212, 2-Ethyl-2-({6-[(1-methyl-1H-pyrazol-3-yl)methoxy]-1-(3-piperidin-1-ylbenzyl)-1H-benzimidazol-2-yl}methyl)butanoic acid] gave a pKi on human FLAP of 7.05. For the same compound, the pIC50 in assay [1] (Homo sapiens, 0.5 h) is 5.97. Take `Cn1ccc(COc2ccc3nc(C4CCCC[C@H]4C(=O)O)n(Cc4cccc(N5CC(F)(F)C5)c4)c3c2)n1` (mixture of isomers) [Example 205, racemic cis-2-{1-[3-(3,3-Difluoroazetidin-1-yl)benzyl]-6-[(1-methyl-1H-pyrazol-3-yl)methoxy]-1H-benzimidazol-2-yl}cyclohexanecarboxylic acid as the trifluoroacetic acid salt]: at human FLAP, the pKi is 7.68. For the same compound, the pIC50 in assay [1] (Homo sapiens, 0.5 h) is 5.78. In the same order, the values of `Cc1ccc(COc2ccc3nc(C4CCCC[C@H]4C(=O)O)n(Cc4cc(N5CCCCC5)ccc4F)c3c2)nc1` (mixture of isomers) [Example 209, racemic cis-2-{1-(2-Fluoro-5-piperidin-1-ylbenzyl)-6-[(5-methylpyridin-2-yl)methoxy]-1H-benzimidazol-2-yl}cyclohexanecarboxylic acid] are 8.42 and 6.82. For the compound `Cc1ccc(COc2ccc3nc(C4CCCC[C@H]4C(=O)O)n(Cc4cccc(N5CCCCC5)c4)c3c2)nc1` (mixture of isomers) [Example 223, racemic cis-2-{6-[(5-Methylpyridin-2-yl)methoxy]-1-(3-piperidin-1-ylbenzyl)-1H-benzimidazol-2-yl}cyclohexanecarboxylic acid], the pIC50 in assay [1] was 6.49. As for `Cn1ccc(COc2cc(F)c3nc(C4CCCC[C@H]4C(=O)O)n(Cc4ccc(N5CCC(F)(F)C5)cc4)c3c2)n1` (mixture of isomers) [Example 236, racemic cis-2-{1-[4-(3,3-Difluoropyrrolidin-1-yl)benzyl]-4-fluoro-6-[(1-methyl-1H-pyrazol-3-yl)methoxy]-1H-benzimidazol-2-yl}cyclohexanecarboxylic acid], the pKi at human FLAP is 8.62. In addition, the pIC50 in assay [1] (Homo sapiens, 0.5 h) is 5.78. `CCC(CC)(Cc1nc2ccc(OCc3ccn(C)n3)cc2n1Cc1ccc(N2CCC(F)(F)C2)cc1)C(=O)O` [Example 216, 2-({1-[4-(3,3-Difluoropyrrolidin-1-yl)benzyl]-6-[(1-methyl-1H-pyrazol-3-yl)methoxy]-1H-benzimidazol-2-yl}methyl)-2-ethylbutanoic acid] had a pKi on human FLAP of about 6.74. The same measure, in the same setting: under `Cn1ccc(COc2ccc3nc(C4CCCC[C@H]4C(=O)O)n(Cc4cccc(C#N)c4)c3c2)n1` (mixture of isomers) [Example 199, racemic cis-2-{1-(3-Cyanobenzyl)-6-[(1-methyl-1H-pyrazol-3-yl)methoxy]-1H-benzimidazol-2-yl}cyclohexanecarboxylic acid] stands about 5.60; under `Cc1ccc(COc2ccc3nc(C4CCCC[C@H]4C(=O)O)n(Cc4cccc(Br)c4)c3c2)nc1` (mixture of isomers) [Example 217, racemic trans-2-{1-(3-Bromobenzyl)-6-[(5-methylpyridin-2-yl)methoxy]-1H-benzimidazol-2-yl}cyclohexanecarboxylic acid], 7.22. The same measure, in the same setting: under `Cc1ccc(COc2ccc3nc(C4[C@H](C(=O)O)C4(C)C)n(Cc4ccccc4C)c3c2)nc1` (mixture of isomers) [Example 210, racemic cis-2,2-Dimethyl-3-{1-(2-methylbenzyl)-6-[(5-methylpyridin-2-yl)methoxy]-1H-benzimidazol-2-yl}cyclopropanecarboxylic acid] stands about 5.76. Compound `CCC(CC)(Cc1nc2ccc(OCc3ccc(C)cn3)cc2n1Cc1cccc(-c2cnc(OC)nc2)c1)C(=O)O` [Example 196, 2-Ethyl-2-({1-[3-(2-methoxypyrimidin-5-yl)benzyl]-6-[(5-methylpyridin-2-yl)methoxy]-1H-benzimidazol-2-yl}methyl)butanoic acid] had a pKi on human FLAP of about 6.30.

Regarding `Cc1ccc(COc2ccc3nc(C4CCCC[C@H]4C(=O)O)n(Cc4cccc(N5CCCCC5)c4)c3c2)nc1` (mixture of isomers) [Example 224, racemic trans-2-{6-[(5-Methylpyridin-2-yl)methoxy]-1-(3-piperidin-1-ylbenzyl)-1H-benzimidazol-2-yl}cyclohexanecarboxylic acid], the pIC50 in assay [1] was 5.66. With `Cc1ccc(COc2ccc3nc([C@H]4CCCC[C@H]4C(=O)O)n(Cc4cc(Br)ccc4F)c3c2)nc1` (racemic) [Example 229, racemic-cis-2-{1-(5-Bromo-2-fluorobenzyl)-6-[(5-methylpyridin-2-yl)methoxy]-1H-benzimidazol-2-yl}cyclohexanecarboxylic acid], the pIC50 in assay [1] is 5.18. For the compound `Cn1ccc(COc2ccc3nc(C4CCCC[C@H]4C(=O)O)n(Cc4cccc(Br)c4)c3c2)n1` (single isomer, unassigned) [Example 198, (1R*,2S*)-2-{1-(3-Bromobenzyl)-6-[(1-methyl-1H-pyrazol-3-yl)methoxy]-1H-benzimidazol-2-yl}cyclohexanecarboxylic acid], at human FLAP, the negative-log Ki (pKi) was under 5.00. On human FLAP, `Cc1ccc(COc2ccc3nc(C4[C@H](C(=O)O)C4(C)C)n(Cc4cccc(C)c4)c3c2)nc1` (mixture of isomers) [Example 202, racemic cis-2,2-Dimethyl-3-{1-(3-methylbenzyl)-6-[(5-methylpyridin-2-yl)methoxy]-1H-benzimidazol-2-yl}cyclopropanecarboxylic acid] showed a negative-log Ki (pKi) of about 6.12. Still for that read-out and setting: under `CCC(CC)(Cc1nc2ccc(OCc3ccn(C)n3)cc2n1Cc1cc(Br)ccc1F)C(=O)O` [Example 234, 2-({1-(5-Bromo-2-fluorobenzyl)-6-[(1-methyl-1H-pyrazol-3-yl)methoxy]-1H-benzimidazol-2-yl}methyl)-2-ethylbutanoic acid] stands under 5.00; under `CCC(CC)(Cc1nc2ccc(OCc3ccn(C)n3)cc2n1Cc1cccc(-c2cnc(OC)nc2)c1)C(=O)O` [Example 213, 2-Ethyl-2-({1-[3-(2-methoxypyrimidin-5-yl)benzyl]-6-[(1-methyl-1H-pyrazol-3-yl)methoxy]-1H-benzimidazol-2-yl}methyl)butanoic acid], about 6.03. Consider `Cc1ccc(COc2ccc3nc(C4CCCC[C@H]4C(=O)O)n(Cc4cccc(N5CCC(F)(F)C5)c4)c3c2)nc1` (mixture of isomers) [Example 220, racemic cis-2-{1-[3-(3,3-Difluoropyrrolidin-1-yl)benzyl]-6-[(5-methylpyridin-2-yl)methoxy]-1H-benzimidazol-2-yl}cyclohexanecarboxylic acid], for which, in assay [1] (Homo sapiens, 0.5 h), the pIC50 is 6.19.

For `Cc1ccc(COc2ccc3nc(CC(C)(C)C(=O)O)n(Cc4cc(Br)ccc4F)c3c2)nc1` [Example 225, 3-{1-(5-Bromo-2-fluorobenzyl)-6-[(5-methylpyridin-2-yl)methoxy]-1H-benzimidazol-2-yl}-2,2-dimethylpropanoic acid], at human FLAP, the pKi is about 6.06. On the same count and under the same terms, in the case of `Cc1ccc(COc2ccc3nc(CC(C)(C)C(=O)O)n(Cc4cccc(Br)c4)c3c2)nc1` [Example 232, 3-{1-(3-Bromobenzyl)-6-[(5-methylpyridin-2-yl)methoxy]-1H-benzimidazol-2-yl}-2,2-dimethylpropanoic acid as the trifluoroacetic acid salt] it was about 6.12. On to `Cc1ccc(COc2ccc3nc(C4[C@H](C(=O)O)C4(C)C)n(Cc4cc(Br)ccc4F)c3c2)nc1` (mixture of isomers) [Example 227, racemic cis-3-{1-(5-Bromo-2-fluorobenzyl)-6-[(5-methylpyridin-2-yl)methoxy]-1H-benzimidazol-2-yl}-2,2-dimethylcyclopropanecarboxylic acid], for which the pIC50 in assay [1] (Homo sapiens, 0.5 h) was 5.34. Take `Cc1ccc(COc2ccc3nc(C4CCCC[C@H]4C(=O)O)n(Cc4cc(Br)ccc4F)c3c2)nc1` (mixture of isomers) [Example 218, racemic trans-2-{1-(5-Bromo-2-fluorobenzyl)-6-[(5-methylpyridin-2-yl)methoxy]-1H-benzimidazol-2-yl}cyclohexanecarboxylic acid]: in assay [1] (Homo sapiens, 0.5 h), the pIC50 was 5.38. With `CCC(CC)(Cc1nc2ccc(OCc3ccn(C)n3)cc2n1Cc1ccc(-c2cnc(OC)nc2)cc1F)C(=O)O` [Example 214, 2-Ethyl-2-({1-[2-fluoro-4-(2-methoxypyrimidin-5-yl)benzyl]-6-[(1-methyl-1H-pyrazol-3-yl)methoxy]-1H-benzimidazol-2-yl}methyl)butanoic acid], on human FLAP, the pKi was about 5.60.

As a reminder, the pKi is −log10 of the Ki, conventionally taken in molar units. Higher therefore signals a small Ki. By pIC50 is commonly meant −log10 of the IC50, conventionally taken in molar units.
